Data published in patent US5368841A, “Photodynamic therapy for the destruction of the synovium in the treatment of rheumatoid arthritis and the inflammatory arthritides” (The General Hospital Corporation, priority 1993, dated 1994).

Tests used:
[1] = rabbit, in vivo
[2] = test system: 5PAM (murine squamous cell carcinoma); experiment: Intracellular PpIX synthesis versus cell proliferation rate (Table 4); assay type: cell-based; conditions: Dt 14 h
[3] = test system: EJ (human bladder carcinoma); experiment: as above; assay type: cell-based; conditions: Dt 23 h
[4] = test system: HSF (human skin fibroblast); experiment: as above; assay type: cell-based; conditions: Dt 27 h
[5] = test system: NBT-2 (rat bladder carcinoma); experiment: as above; assay type: cell-based; conditions: Dt 13.5 h
[6] = rabbit, in vivo; remark: listed apart in the source
Protocol: Photochemotherapeutic synovectomy was performed on an antigen induced arthritis (AIA) model in 12 New Zealand white rabbits in a double control study. After a six week sensitization period, the joints of all animals were challenged bilaterally with an injection of albumin suspended in Freund's adjuvant. After five days, eight animals received systemic injections of 2 mg/kg of Photophrin® II. At 24 hours, four animals underwent bilateral arthrotomy procedures. The right knee joint of each was exposed to 100J/cm2 of 630 nm laser light over a 20 minute period. The left knees, not receiving the laser light application, served as controls. At 48 hours post HPD injection, an additional 4 animals underwent the identical operative procedures. Post-operatively, all animals were returned to their cages and allowed free movement. […] At one month post treatment, animals were sacrificed, knee joint synovium was then harvested, fixed, and stained with H and E for pathological evaluation.

[7] = design: species or system New Zealand White rabbits; conditions: rabbit, in vivo
Protocol: (§1) Thirty New Zealand White rabbits weighing 2-4 kg were sensitized over a six week period with two cutaneous injections of ovalbumin suspended in Fruends adjuvant. At six weeks, the knee joints of all animals were challenged with an intra-articular injection of ovalbumin solution. Seven days following joint challenge, 25 animals received systemic intravenous injections with Photofrin® (2.0 mg/kg). Animals were killed at 6, 12, 24, 48 and 72 hours post Photofrin® injection and tissue samples were obtained of skin, quadriceps muscle, knee synovium, articular cartilage, meniscus, bone and tendon. Tissue weight was measured (Mettler AE 163 balance) and tissue samples were frozen at -90 degrees C. (Revco Ultra Low Freezer) until dye extraction.
The biodistribution of Photophrin® within synovium, articular cartilage and meniscus was also studied with fluorescence microscopy. At each of the harvest intervals of 6, 12, 24, 48 and 72 hours post injection, tissue specimens were obtained from experimental and control animals. Samples were placed in O.C.T. medium and frozen at -90 C. Unstained frozen sections at 10 microns were prepared using a cryostat (Microm, Inc., Heidelberg, Germany) and analyzed with a fluorescence microscope (Axiophot, Zeiss, Oberkochen, Germany) under epiluminescence of a mercury lamp (HBO 200 W/2, Zeiss). […]

[8] = design: species or system New Zealand White rabbits; conditions: rabbit, in vivo; remark: listed apart in the source
Protocol: as §1
For extraction, tissue samples were homogenized (Homogenizer, Model PT 10/35, Brinkman Instruments, Co., Westbury, N.Y.) in 8 cc 0.1N NaOh solution. Each sample was centrifuged at 17,000 RPM (Sorvall RC-5B, refrigerated superspeed centrifuge, DuPont instruments) for 20 minutes. The fluorescence of 2 cc of supernatant was measured with a spectrofluorometer (Model Flourolog 2, Spex Industries, Inc., Edison, N.J.) and compared to that of standard solutions of Photofrin® with known concentration, and Photofrin® mixed with supernatant of extracted control quadriceps muscle. The excitation wavelength 366 nm and fluorescence spectrum between 600 and 700 nm was analyzed. Untreated animals will served as controls and for background correction.

NCC(=O)CCC(=O)O [ALA, δ-aminolevulinic acid]
ALA observed in the synovium [1]: large amounts

C=CC1=C(C)c2cc3[nH]c(cc4nc(cc5[nH]c(cc1n2)c(C)c5CCC(=O)O)C(CCC(=O)O)=C4C)c(C)c3C=C [PpIX, Protoporphyrin IX]
Intracellular PpIX (4 h) [2]: 160 a moles/cell
Intracellular PpIX (4 h) [3]: 100 a moles/cell
Intracellular PpIX (4 h) [4]: 40 a moles/cell
Intracellular PpIX (4 h) [5]: 160 a moles/cell

Photofrin®
side effects of synovium destruction [6]: without significant side effects
uptake by fluorescence microscopy in synovium [7]: significant uptake at 12, 24, 48 and 72 hours
selectivity of uptake in inflamed synovium [8]: selectively taken up in synovium at 24 and 48 hours post systemic injection
uptake in articular cartilage, meniscus, muscle and tendon [8]: insignificant
Photofrin® concentration in tissue (inflamed synovium) ([8]; iv, 2 mg/kg): greater than 4 micrograms/gram of tissue
time of maximum uptake in inflamed synovium ([8]; iv, 2 mg/kg): 48 h
